# Measured values reported in patent publication US11230717B2, “Plants having increased tolerance to herbicides” (BASF SE, priority 2013, dated 2022).
# Tests used:
# transgenic Corn plants = test: Greenhouse testing of transgenic Corn plants (homozygous T2), herbicide spray test; assay type: in vivo, Zea mays
# Procedure: (§1) Transgenic plants expressing heterologous HPPD or HST enzymes are tested for tolerance against HPPD-inhibiting herbicides in greenhouse experiments.
# (§2) For post emergence treatment, the test plants are first grown to a height of 3 to 15 cm, depending on the plant habit, and only then treated with the herbicides. For this purpose, the test plants are either sown directly and grown in the same containers, or they are first grown separately and transplanted into the test containers a few days prior to treatment. For testing of T0 plants, cuttings can be used. In the case of soybean plants, an optimal shoot for cutting is about 7.5 to 10 cm tall, with at least two nodes present. Each cutting is taken from the original transformant (mother plant) and dipped into rooting hormone powder (indole-3-butyric acid, IBA). The cutting is then placed in oasis wedges inside a bio-dome. Wild type cuttings are also taken simultaneously to serve as controls. The cuttings are kept in the bio-dome for 5-7 days and then transplanted to pots and then acclimated in the growth chamber for two more days. Subsequently, the cuttings are transferred to the greenhouse, acclimated for approximately 4 days, and then subjected to spray tests as indicated.
# (§3) Depending on the species, the plants are kept at 10-25° C. or 20-35° C. The test period ex-tends over 3 weeks. During this time, the plants are tended and their response to the individual treatments is evaluated. Herbicide injury evaluations are taken at 2 and 3 weeks after treatment. Plant injury is rated on a scale of 0 to 9, 0 being no injury and 9 being complete death.
# Transgenic corn plants were sprayed with doses from 62.5-250 g/ha with the benzamide-derivative HPPD-inhibiting herbicide and injury evaluations were taken two weeks after treatment. […] As depicted in Table 19, control plants were severely injured by all doses of herbicide applied, with 86% of leaf material being damaged at the highest rate applied. […] Application of 250 g/ha active ingredient resulted only in 10% leaf damage (event 1) in transgenic plants which gave in direct comparison with wild-type plants (injury value is 86%) an 8-fold increased tolerance at this application rate. In addition, transgenic corn plants comprising a transgene encoding the mutated version of Arabidopsis HPPD with methionine 335 exchanged to histidine, are tolerant for the benzamide-derivative inhibitor tested in the present invention.
# transgenic Soy plants = test: Greenhouse testing of transgenic Soy plants (T2), herbicide spray test; assay type: in vivo, Glycine max
# Procedure: as §1, §2, §3
# As depicted in Table 20, control plants were severely injured by all doses of herbicide applied, with 79% of leaf material being damaged at the highest application rate. […] Application of 31,25 g/ha active ingredient resulted only in 10-13% of leaf damage in two independent transgenic plant lines. Thus, in direct comparison with wild-type plants (injury value is 49%), a 4-fold increased tolerance could be observed after spraying with 31,25 g/ha. […]
# [1] = biological target: T1, Arabidopsis HPPD variant F381I (Arabidopsis thaliana, UniProt P93836, F381I); test: HPPD activity assay, in vitro characterization of HPPD mutants; assay type: biochemical; conditions: normalized to wildtype
# T1 construct: His6 (N); made in house; host or cells: E. coli BL21 (DE3)
# T1 sequence (P93836 whole entry F381I): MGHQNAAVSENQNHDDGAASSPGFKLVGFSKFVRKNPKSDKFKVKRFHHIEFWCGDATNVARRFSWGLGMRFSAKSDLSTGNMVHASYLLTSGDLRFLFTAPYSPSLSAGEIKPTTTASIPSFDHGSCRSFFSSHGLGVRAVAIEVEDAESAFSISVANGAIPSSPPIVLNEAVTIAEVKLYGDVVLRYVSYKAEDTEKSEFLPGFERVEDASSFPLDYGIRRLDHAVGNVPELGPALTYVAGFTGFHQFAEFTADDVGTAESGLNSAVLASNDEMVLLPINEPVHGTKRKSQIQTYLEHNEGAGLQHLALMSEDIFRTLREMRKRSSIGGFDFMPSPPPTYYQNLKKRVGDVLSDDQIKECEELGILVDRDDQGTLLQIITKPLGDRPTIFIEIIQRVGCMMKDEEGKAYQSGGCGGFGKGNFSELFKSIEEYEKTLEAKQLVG
# Procedure: HPPD produces homogentisic acid and CO2 from 4-hydroxyphenylpyruvate (4-HPP) and O2. The activity assay for HPPD is based on the analysis of homogentisic acid by reversed phase HPLC.
# The assay mixture can contain 150 mM potassium phosphate buffer pH 7.0, 50 mM L-ascorbic acid, 100 μM Catalase (Sigma-Aldrich), 1 μM FeSO4 and 0.2 units of purified HPPD enzyme in a total volume of 505 μl. 1 unit is defined as the amount of enzyme that is required to produce 1 nmol of HGA per minute at 20° C.
# After a preincubation of 30 min the reaction is started by adding 4-HPP to a final concentration of 0.05 mM. The reaction is allowed to proceed for 45 min at room temperature. The reaction is stopped by the addition of 50 μl of 4.5 M phosphoric acid. The sample is filtered using a […] pore size PVDF filtration device.
# 5 μl of the cleared sample is analyzed on an UPLC HSS T3 column (particle size 1.8 μm, dimensions 2,1×50 mm; Waters) by isocratic elution using 90% 20 mM NaH2PO4 pH 2.2, 10% methanol (v/v).
# HGA is detected electrochemically at 750 mV (mode: DC; polarity: positive) and quantified by integrating peak areas (Empower software; Waters).
# Inhibitors are dissolved in DMSO (dimethylsulfoxide) to a concentration of 0.5 mM. From this stock solution serial five-fold dilutions are prepared in DMSO, which are used in the assay. The respective inhibitor solution accounts for 1% of the assay volume. […] Activities are normalized by setting the uninhibited enzyme activity to 100%. IC50 values are calculated using non-linear regression.
# Purified, mutant HPPD enzymes are obtained by the methods described above. Dose response and kinetic measurements are carried out using the described HPPD activity assay. Apparent michaelis constants (Km) and maximal reaction velocities (Vmax) are calculated by non-linear regression with the software GraphPad Prism 5 (GraphPad Software, La Jolla, USA) using a substrate inhibition model. […] Weighted means (by standard error) of Km and IC50 values are calculated from at least three independent experiments.
# Field performance of the optimized HPPD enzyme, which is used as a herbicide tolerance trait may depend not only on its lack of sensitivity towards HPPD inhibiting herbicides but also on its activity. To assess the potential performance of a herbicide tolerance trait a tolerance index (TI) is calculated using the following formula: […]
smiles,measurement,setting,value
"CSc1c(Cl)cc(F)c(C(=O)Nc2ncnn2C)c1Cl [Inhibitor 3, 2,4-dichloro-6-fluoro-3-methylsulfanyl-N-(2-methyl-1,2,4-triazol-3-yl)benzamide]","Injury evaluation, scale 0-100%","transgenic Corn plants; Corn AtL385V, I393L Event 1, 62.5 g/ha, two weeks",3%
same,"Injury evaluation, scale 0-100%","transgenic Corn plants; Corn AtL385V, I393L Event 1, 125 g/ha, two weeks",7%
same,"Injury evaluation, scale 0-100%","transgenic Corn plants; Corn AtL385V, I393L Event 1, 250 g/ha, two weeks",10%
same,"Injury evaluation, scale 0-100%","transgenic Corn plants; Corn AtL385V, I393L Event 2, 62.5 g/ha, two weeks",6%
same,"Injury evaluation, scale 0-100%","transgenic Corn plants; Corn AtL385V, I393L Event 2, 125 g/ha, two weeks",10%
same,"Injury evaluation, scale 0-100%","transgenic Corn plants; Corn AtL385V, I393L Event 2, 250 g/ha, two weeks",47%
same,"Injury evaluation, scale 0-100%","transgenic Corn plants; Corn AtM335H, 62.5 g/ha, two weeks",3%
same,"Injury evaluation, scale 0-100%","transgenic Corn plants; Corn AtM335H, 125 g/ha, two weeks",4%
same,"Injury evaluation, scale 0-100%","transgenic Corn plants; Corn AtM335H, 250 g/ha, two weeks",6%
same,"Injury evaluation, scale 0-100%","transgenic Corn plants; Corn WT, 62.5 g/ha, two weeks after treatment",40%
same,"Injury evaluation, scale 0-100%","transgenic Corn plants; Corn WT, 125 g/ha, two weeks after treatment",63%
same,"Injury evaluation, scale 0-100%","transgenic Corn plants; Corn WT, 250 g/ha, two weeks after treatment",86%
same,increased tolerance vs wild-type plants,"transgenic Soy plants; Soy Arabidopsis HPPD (SEQ ID: 53), 31,25 g/ha",4 fold
same,leaf damage,"transgenic Soy plants; Soy Arabidopsis HPPD, two independent transgenic plant lines, 31,25 g/ha",10-13%
same,tolerance compared to nontransgenic control plants,transgenic Soy plants; Soy expressing Glycine max HPPD,more tolerant
same,Normalized tolerance index (TI),[1],0.1
